# Molecular target: T1, JNK1α1 (Homo sapiens, UniProt P45983)
# T1 construct: catalytic domain containing amino acids 1-364 and N-terminal hexahistidine tag; hexahistidine (His6) (N); made in house; host or cells: E. coli BL21 (DE3)
# Test: Coupled spectrophotometric (PK/LDH) JNK1α1 assay: % inhibition and Ki determination
# Format: biochemical
# Conditions: JNK-1
# Method in brief: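 Initial rates were taken from the absorbance decrease at 340 nm at 30° C. Ki was fitted with a tight-binding model over 11 concentrations (top 100 μM); single-point inhibition was tested at 1 or 10 μM.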
# T1 sequence (P45983 1-364): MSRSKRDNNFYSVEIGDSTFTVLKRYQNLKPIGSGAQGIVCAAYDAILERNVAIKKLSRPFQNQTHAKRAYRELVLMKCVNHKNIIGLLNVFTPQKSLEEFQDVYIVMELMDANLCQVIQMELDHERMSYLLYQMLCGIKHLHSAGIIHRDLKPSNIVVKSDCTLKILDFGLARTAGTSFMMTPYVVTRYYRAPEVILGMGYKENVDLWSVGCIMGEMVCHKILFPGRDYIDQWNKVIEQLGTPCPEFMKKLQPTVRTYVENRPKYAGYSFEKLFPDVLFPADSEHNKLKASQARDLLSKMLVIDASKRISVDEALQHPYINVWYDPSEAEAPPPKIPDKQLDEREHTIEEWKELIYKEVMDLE
row,SMILES,Ki
1,"CC(C)C(=O)N[C@H]1CC[C@H](Nc2ncc3cccc(OC4CCOC4)c3n2)CC1 (stereo partly drawn) [Example 186, 2-methyl-N-(trans-4-{[8-(tetrahydrofuran-3-yloxy)quinazolin-2-yl]amino)cyclohexyl)propanamide]",607 nM
2,"CS(=O)(=O)N[C@H]1CC[C@H](Nc2ncc3cccc(OC4CCOC4)c3n2)CC1 (stereo partly drawn) [Example 187, N-(trans-4-{[8-(tetrahydrofuran-3-yloxy)quinazolin-2-yl]amino}cyclohexyl)methanesulfonamide]",414 nM
3,"CCS(=O)(=O)N[C@H]1CC[C@H](Nc2ncc3cccc(OC4CCOC4)c3n2)CC1 (stereo partly drawn) [Example 188, N-(trans-4-{[8-(tetrahydrofuran-3-yloxy)quinazolin-2-yl]amino}cyclohexyl)ethanesulfonamide]",374 nM
4,"FCCN[C@H]1CC[C@H](Nc2ncc3cccc(OC4CCOCC4)c3n2)CC1 [Example 189, trans-N-(2-fluoroethyl)-N′-[8-(tetrahydro-2H-pyran-4-yloxy)quinazolin-2-yl]cyclohexane-1,4-diamine]",877 nM
5,"CC(C)N[C@H]1CC[C@H](Nc2ncc3cccc(OC4CCOCC4)c3n2)CC1 [Example 191, trans-N-isopropyl-N′-[8-(tetrahydro-2H-pyran-4-yloxy)quinazolin-2-yl]cyclohexane-1,4-diamine]",698 nM
6,"CCN[C@H]1CC[C@H](Nc2ncc3cccc(OC4CCOC4)c3n2)CC1 (stereo partly drawn) [Example 192, trans-N-ethyl-N′-[8-(tetrahydrofuran-3-yloxy)quinazolin-2-yl]cyclohexane-1,4-diamine]",1130 nM
7,"CC(C)N[C@H]1CC[C@H](Nc2ncc3cccc(OC4CCOC4)c3n2)CC1 (stereo partly drawn) [Example 193, trans-N-isopropyl-N′-[8-(tetrahydrofuran-3-yloxy)quinazolin-2-yl]cyclohexane-1,4-diamine]",1410 nM
8,"FCCN[C@H]1CC[C@H](Nc2ncc3cccc(OC4CCOC4)c3n2)CC1 (stereo partly drawn) [Example 194, trans-N-(2-fluoroethyl)-N′-[8-(tetrahydrofuran-3-yloxy)quinazolin-2-yl]cyclohexane-1,4-diamine]",1460 nM
9,"Cc1cc(OCCN(C)C)ccc1-c1cccc2cnc(N[C@H]3CC[C@H](O)CC3)nc12 [Example 203, trans-4-[(8-{4-[2-(dimethylamino)ethoxy]-2-methylphenyl}quinazolin-2-yl)amino] cyclohexanol]",815 nM
10,"CNC(=O)COc1c(C)ccc2cnc(N[C@H]3CC[C@H](O)CC3)nc12 [Example 206, 2-({2-[(trans-4-hydroxycyclohexyl)amino]-7-methylquinazolin-8-yl}oxy) N-methylacetamide]",495 nM
11,"Cc1ccc2cnc(N[C@H]3CC[C@H](O)CC3)nc2c1OCC(=O)N(C)C [Example 207, 2-({2-[(trans-4-hydroxycyclohexyl)amino]-7-methylquinazolin-8-yl}oxy)-N,N-dimethylacetamide]",1060 nM
12,"Cc1ccc2cnc(N[C@H]3CC[C@H](O)CC3)nc2c1OCC(=O)NC(C)C [Example 208, 2-({2-[(trans-4-hydroxycyclohexyl)amino]-7-methylquinazolin-8-yl}oxy)-N-isopropylacetamide]",1130 nM
13,"Cc1ccc2cnc(N[C@H]3CC[C@H](O)CC3)nc2c1OCC(=O)NC1CCOCC1 [Example 210, 2-({2-[(trans-4-hydroxycyclohexyl)amino]-7-methylquinazolin-8-yl}oxy)-N-(tetrahydro-2H-pyran-4-yl)acetamide]",1710 nM
14,"Cc1ccc2cnc(N[C@H]3CC[C@H](O)CC3)nc2c1OCC(=O)NC1CCS(=O)(=O)C1 (stereo partly drawn) [Example 211, N-(1,1-dioxidotetrahydro-3-thienyl)-2-({2-[(trans-4-hydroxycyclohexyl)amino]-7-methylquinazolin-8-yl}oxy)acetamide]",1030 nM
15,"Cc1ccc2cnc(N[C@H]3CC[C@H](O)CC3)nc2c1OCC(=O)N(C)CCO [Example 212, 2-({2-[(trans-4-hydroxycyclohexyl)amino]-7-methylquinazolin-8-yl}oxy)-N-(2-hydroxyethyl)-N-methylacetamide]",1950 nM
16,"Cc1ccc2cnc(N[C@H]3CC[C@H](O)CC3)nc2c1OCC(=O)N1CCOCC1 [Example 213, trans-4-{[7-methyl-8-(2-morpholin-4-yl-2-oxoethoxy)quinazolin-2-yl]amino} cyclohexanol]",780 nM
17,"Cc1ccc2cnc(N[C@H]3CC[C@H](O)CC3)nc2c1OCC(=O)N1CCS(=O)(=O)CC1 [Example 214, trans-4-({8-[2-(1,1-dioxidothiomorpholin-4-yl)-2-oxoethoxyl]-7-methylquinazolin-2-yl}amino) cyclohexanol]",1300 nM
18,"c1cnc(N2CCC(Nc3cc4cc(-c5cn[nH]c5)ccc4cn3)CC2)nc1 [Example 216, 6-(1H-pyrazol-4-yl)-N-(1-pyrimidin-2-ylpiperidin-4-yl)isoquinolin-3-amine]",480 nM

# Molecules with a lower Ki, results first:
row,Ki,SMILES
1,342 nM,"CCN[C@H]1CC[C@H](Nc2ncc3cccc(OC4CCOCC4)c3n2)CC1 [Example 190, trans-N-ethyl-N′-[8-(tetrahydro-2H-pyran-4-yloxy)quinazolin-2-yl]cyclohexane-1,4-diamine]"
2,303 nM,"COc1ccccc1-c1cccc2cnc(N[C@H]3CC[C@H](O)CC3)nc12 [Example 204, trans-4-{(8-(2-methoxyphenyl)quinazolin-2-yl]amino} cyclohexanol]"
3,250 nM,"OC1(c2cncnc2)CCC(Nc2cc3cc(-c4cn[nH]c4)ccc3cn2)CC1 (centres unmarked) [Example 215, 4-{[6-(1H-pyrazol-4-yl)isoquinolin-3-yl]amino}-1-pyrimidin-5-ylcyclohexanol]"
4,186 nM,"Cc1ccccc1-c1cccc2cnc(N[C@H]3CC[C@H](O)CC3)nc12 [Example 200, trans-4-{[8-(2-methylphenyl)quinazolin-2-yl]amino} cyclohexanol]"
5,143 nM,CC(=O)N1CCC(c2cccc3cnc(N[C@H]4CC[C@H](O)CC4)nc23)C1 (some centres unmarked) [Example 197]
6,98 nM,"CNCCOc1ccc(-c2cccc3cnc(N[C@H]4CC[C@H](O)CC4)nc23)cc1 [Example 199, trans-4-[(8-{4-[2-(methylamino)ethoxy]phenyl}quinazolin-2-yl)amino]cyclohexanol]"
7,81 nM,"CS(=O)(=O)N1CCC(c2cccc3cnc(N[C@H]4CC[C@H](O)CC4)nc23)C1 (stereo partly drawn) [Example 195, trans-4-({8-[1-(methylsulfonyl)pyrrolidin-3-yl]quinazolin-2-yl}amino)cyclohexanol]"
8,77 nM,"NCCOc1ccc(-c2cccc3cnc(N[C@H]4CC[C@H](O)CC4)nc23)cc1 [Example 202, trans-4-({8-[4-(2-aminoethoxy)phenyl]quinazolin-2-yl}amino) cyclohexanol]"
9,70 nM,"CN(C)CCOc1ccc(-c2cccc3cnc(N[C@H]4CC[C@H](O)CC4)nc23)cc1 [Example 201, trans-4-[(8-{4-[2-(dimethylamino)ethoxy]phenyl}quinazolin-2-yl)amino]cyclohexanol]"
10,56 nM,"COC(=O)N1CCC(c2cccc3cnc(N[C@H]4CC[C@H](O)CC4)nc23)C1 (stereo partly drawn) [Example 196, methyl 3-{2-[(trans-4-hydroxycyclohexyl)amino]quinazolin-8-yl}pyrrolidine-1-carboxylate]"
11,29 nM,"O[C@H]1CC[C@H](Nc2ncc3cccc(-c4ccccc4)c3n2)CC1 [Example 205, trans-4-[(8-phenylquinazolin-2-yl)amino] cyclohexanol]"

# — patent US7998978B2 (Pfizer Inc., priority 2006, dated 2011)
